From patent US20190365710A1, “METHODS OF TREATING CANCER” (GlaxoSmithKline Intellectual Property Development Limited, priority 2016, published 2019)
Where two headings read alike, the source gives them in different places.

Assays:
[1] = tested on: 196 human cancer cell lines; assay: 6-day growth-death assay (Cell Titer Glo); format: cell-based
[2] = tested on: Colon cancer cell lines; assay: 6-day growth-death assay (Cell Titer Glo); format: cell-based, human
[3] = tested on: Bladder cancer cell lines; assay: 6-day growth-death assay (Cell Titer Glo); format: cell-based, human; settings: for IC50: Homo sapiens, read-out: Median gIC50, Bladder
[4] = tested on: Melanoma cell lines; assay: 6-day growth-death assay (Cell Titer Glo); settings: for IC50: Homo sapiens, read-out: Median gIC50, Melanoma
Procedure: (§1) The growth of all cell lines was evaluated over time across a wide range of seeding densities to identify conditions that permitted proliferation throughout the entire 6-day assay. Cells were plated at the optimal seeding density and after overnight incubation, a 20-point 2-fold titration of compound was added and plates were incubated for 6 days. A replicate plate of cells was harvested at the time of compound addition to quantify the starting number of cells (To). Values obtained after the 6 day treatment were expressed as a function of the To value and plotted against compound concentration. The To value was normalized to 100% and represents the number of cells at the time of compound addition. The data were fit with a 4 parameter equation to generate a concentration response curve and the growth IC50 (gIC50) was determined. The gIC50 is the midpoint of the ‘growth window’, the difference between the number of cells at the time of compound addition (T0) and the number of cells after 6 days (DMSO control). The growth-death assay can be used to quantify the net population change, clearly defining cell death (cytotoxicity) as fewer cells compared to the number at the time of compound addition (T0).

[5] = tested on: Toledo (human DLBCL) xenograft; assay: Toledo xenograft tumor growth; settings: for Body weight Difference (vs. vehicle): Toledo (DLBCL)
[6] = biological target: PRMT8 (Homo sapiens, UniProt Q9NR22); assay: biochemical
Chain of PRMT8 (Q9NR22 whole entry): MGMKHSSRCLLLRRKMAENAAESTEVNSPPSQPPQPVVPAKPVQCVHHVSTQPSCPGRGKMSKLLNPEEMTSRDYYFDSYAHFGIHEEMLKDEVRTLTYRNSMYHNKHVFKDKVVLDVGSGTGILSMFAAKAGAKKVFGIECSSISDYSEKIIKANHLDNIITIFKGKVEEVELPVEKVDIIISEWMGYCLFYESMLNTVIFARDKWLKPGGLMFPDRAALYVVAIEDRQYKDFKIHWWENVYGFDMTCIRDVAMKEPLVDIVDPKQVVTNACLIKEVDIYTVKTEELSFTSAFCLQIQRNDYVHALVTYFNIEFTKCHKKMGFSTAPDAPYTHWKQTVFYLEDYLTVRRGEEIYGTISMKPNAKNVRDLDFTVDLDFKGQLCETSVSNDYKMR

[7] = tested on: MDA-MB-435S; assay: 6-day growth-death assay (Cell Titer Glo); format: cell-based, human
Procedure: as §1

[8] = tested on: Prostate cancer cell lines; assay: 6-day growth-death assay (Cell Titer Glo); format: cell-based, human; settings: 4 cell lines
[9] = tested on: human renal cell carcinoma xenografts (ACHN); assay: ACHN xenograft tumor growth; format: in vivo, SCID mice; settings: for Body weight Difference (vs. vehicle): ACHN (ccRCC)
[10] = tested on: SK-MEL-5; assay: 6-day growth-death assay (Cell Titer Glo); format: cell-based; settings: Homo sapiens, SK-MEL-5, 144 h, read-out: gIC50
Procedure: as §1

[11] = tested on: HL-60; assay: 6-day growth-death assay (Cell Titer Glo); format: cell-based; settings: Homo sapiens, HL-60, 144 h, read-out: gIC50
Procedure: as §1

[12] = tested on: ACHN; assay: 6-day growth-death assay (Cell Titer Glo); format: cell-based; settings: Homo sapiens, 144 h, read-out: gIC50
Procedure: as §1

[13] = tested on: A375; assay: 6-day growth-death assay (Cell Titer Glo); format: cell-based; settings: Homo sapiens, A-375, 144 h, read-out: gIC50
Procedure: as §1

[14] = biological target: PRMT5/MEP50 (Homo sapiens, UniProt O14744); assay: PRMT family radioactive assay; format: biochemical; settings: Type II; 60 minute SAM:Enzyme:Compound A preincubation
Chain of PRMT5/MEP50 (O14744 whole entry): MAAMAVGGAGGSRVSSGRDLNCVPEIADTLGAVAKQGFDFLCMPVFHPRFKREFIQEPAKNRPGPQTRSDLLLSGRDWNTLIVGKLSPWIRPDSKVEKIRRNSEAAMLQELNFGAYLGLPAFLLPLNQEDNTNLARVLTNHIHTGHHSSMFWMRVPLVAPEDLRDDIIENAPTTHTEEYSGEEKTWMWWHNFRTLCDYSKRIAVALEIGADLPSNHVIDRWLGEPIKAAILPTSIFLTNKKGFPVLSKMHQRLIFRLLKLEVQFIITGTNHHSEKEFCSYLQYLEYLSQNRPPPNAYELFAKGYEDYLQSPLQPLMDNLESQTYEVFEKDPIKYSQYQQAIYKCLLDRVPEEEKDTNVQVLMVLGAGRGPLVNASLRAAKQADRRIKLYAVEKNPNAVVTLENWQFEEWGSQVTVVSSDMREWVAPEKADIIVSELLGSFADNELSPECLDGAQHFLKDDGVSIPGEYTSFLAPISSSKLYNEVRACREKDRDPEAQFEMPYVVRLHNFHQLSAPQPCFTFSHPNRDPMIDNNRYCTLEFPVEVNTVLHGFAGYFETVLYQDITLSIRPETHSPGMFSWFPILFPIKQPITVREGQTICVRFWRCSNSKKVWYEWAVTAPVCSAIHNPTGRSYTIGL
Chain of PRMT5/MEP50 (Q9BQA1 whole entry partner): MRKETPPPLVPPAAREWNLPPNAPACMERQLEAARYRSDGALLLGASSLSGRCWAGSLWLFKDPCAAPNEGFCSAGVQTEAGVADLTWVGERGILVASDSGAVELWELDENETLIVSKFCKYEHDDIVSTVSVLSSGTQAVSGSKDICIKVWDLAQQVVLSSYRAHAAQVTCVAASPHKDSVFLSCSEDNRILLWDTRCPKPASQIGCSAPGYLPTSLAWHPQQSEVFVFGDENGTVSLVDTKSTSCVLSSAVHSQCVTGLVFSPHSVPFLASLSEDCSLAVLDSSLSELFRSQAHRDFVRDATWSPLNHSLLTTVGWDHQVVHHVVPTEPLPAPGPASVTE

[15] = biological target: PRMT6 (Homo sapiens, UniProt Q96LA8); assay: biochemical
Chain of PRMT6 (Q96LA8 whole entry): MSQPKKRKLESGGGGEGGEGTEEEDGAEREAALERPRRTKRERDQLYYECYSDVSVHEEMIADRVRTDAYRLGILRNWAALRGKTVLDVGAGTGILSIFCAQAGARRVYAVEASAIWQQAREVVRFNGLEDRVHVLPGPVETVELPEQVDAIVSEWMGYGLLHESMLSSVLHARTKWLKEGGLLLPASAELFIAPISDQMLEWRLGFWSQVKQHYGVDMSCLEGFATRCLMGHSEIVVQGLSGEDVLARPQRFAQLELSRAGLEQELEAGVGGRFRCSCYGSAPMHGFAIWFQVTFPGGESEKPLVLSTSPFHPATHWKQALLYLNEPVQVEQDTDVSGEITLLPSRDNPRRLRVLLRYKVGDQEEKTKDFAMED

[16] = tested on: AML cell lines; assay: 6-day growth-death assay (Cell Titer Glo); format: cell-based, human
[17] = biological target: PRMT9 (Homo sapiens, UniProt Q6P2P2); assay: PRMT family radioactive assay; format: biochemical; settings: Type II; 60 minute SAM:Enzyme:Compound A preincubation
Chain of PRMT9 (Q6P2P2 whole entry): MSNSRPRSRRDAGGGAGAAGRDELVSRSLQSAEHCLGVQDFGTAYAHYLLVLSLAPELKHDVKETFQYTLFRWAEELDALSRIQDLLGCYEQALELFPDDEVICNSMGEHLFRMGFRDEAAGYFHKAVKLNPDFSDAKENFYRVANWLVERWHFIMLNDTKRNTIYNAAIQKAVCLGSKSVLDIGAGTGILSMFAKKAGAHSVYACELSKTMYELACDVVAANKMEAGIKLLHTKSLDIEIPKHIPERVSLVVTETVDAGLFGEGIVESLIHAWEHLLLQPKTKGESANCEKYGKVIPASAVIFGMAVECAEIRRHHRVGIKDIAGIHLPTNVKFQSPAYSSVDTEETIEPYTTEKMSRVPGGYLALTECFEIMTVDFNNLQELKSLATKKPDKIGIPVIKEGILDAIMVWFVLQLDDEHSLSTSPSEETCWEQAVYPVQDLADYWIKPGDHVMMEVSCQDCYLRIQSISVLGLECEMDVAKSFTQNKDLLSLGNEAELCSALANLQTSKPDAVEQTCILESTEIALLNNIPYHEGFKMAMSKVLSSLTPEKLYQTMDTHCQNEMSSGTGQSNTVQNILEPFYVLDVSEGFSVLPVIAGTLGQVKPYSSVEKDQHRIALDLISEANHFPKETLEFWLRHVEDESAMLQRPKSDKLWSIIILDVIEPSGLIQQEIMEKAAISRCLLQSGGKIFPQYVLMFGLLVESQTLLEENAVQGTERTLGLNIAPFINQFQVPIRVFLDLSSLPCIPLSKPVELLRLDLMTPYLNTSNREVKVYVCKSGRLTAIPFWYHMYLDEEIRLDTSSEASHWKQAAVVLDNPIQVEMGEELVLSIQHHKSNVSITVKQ

[18] = tested on: Kidney cancer cell lines; assay: 6-day growth-death assay (Cell Titer Glo); format: cell-based, human; settings: 10 cell lines
[19] = tested on: Breast cancer cell lines; assay: 6-day growth-death assay (Cell Titer Glo); settings: for IC50: Homo sapiens
Procedure: Cell lines representing triple negative breast cancer (TNBC) are shown in orange; other subtypes are in blue.
as §1

[20] = tested on: NSC-LC cell lines; assay: 6-day growth-death assay (Cell Titer Glo); format: cell-based, human; settings: for IC50: Homo sapiens, read-out: Median gIC50, Lung (NSCLC); for Median % Ymin − T0: Lung (NSCLC)
[21] = tested on: U2932; settings: only at this concentration
Procedure: (§2) FIG. 18: Propidium iodide FACS analysis of cell cycle in human lymphoma cell lines. […] Data represents the average±SEM of biological replicates, n=2.
(§3) By day 7, an increase in the sub-G1 population was apparent at concentrations ≥100 nM.

[22] = tested on: Toledo
Procedure: as §2, §3

[23] = tested on: OCI-Ly1; settings: only at this concentration
Procedure: as §2, §3

[24] = tested on: ccRCC cell lines; settings: only at the highest concentration
[25] = tested on: Lymphoma cell lines; assay: 6-day growth-death assay (Cell Titer Glo); format: cell-based, human; settings: for IC50: Homo sapiens, read-out: Median gIC50, Lymphoma
[26] = tested on: arginine methylation in Toledo DLBCL cells; assay: Western analysis of arginine methylation marks (ADMA, SDMA, MMA); format: cell-based, human
Text: (B) Representative western blots of arginine methylation marks. Regions quantified are denoted by black bars on the right of the gel.
(B) Representative western blots of arginine methylation marks. Regions quantified for (A) are denoted by black bars on the side of the gel.
As predicted, ADMA methylation decreased while MMA increased upon compound exposure (FIG. 12). […] Given the detection of numerous substrates with varying kinetics, and variability of ADMA levels among DMSO-treated samples, both the full lane and a prominent 45 kDa band were characterized to assess ADMA. Increases in MMA were apparent by 24 hours and near maximal by 48 hours while decreases in the 45 kDa ADMA band required 72-96 hours to achieve maximal effect. Increases in SDMA were apparent after 48 hours of compound exposure and continued to increase through 120 hours, consistent with the potential switch from conversion of MMA to ADMA by Type I PRMTs to SDMA by Type II PRMTs (FIG. 12).
Cells were then washed, cultured in Compound A-free media, samples were collected daily through 120 hours, and arginine methylation levels were examined by western analysis. […] SDMA appeared to continue to increase even after 6 hours of washout. This is consistent with the continued increase observed through 120 hours without any obvious plateau (FIG. 12) coupled with the durable increase in MMA that has not yet returned to baseline after washout. Durability of each modification generally reflected the kinetics of arginine methylation changes brought about by Compound A, with MMA being the most rapid.

[27] = Homo sapiens, 144 h, read-out: Median gIC50
[28] = 0.4 μM Compound A for 72 hours then washout

CCOCC1(COCC)CCC(c2n[nH]cc2CN(C)CCNC)CC1 [Compound A]
% Cytotoxic (cell lines with negative Ymin−T0) ([1]; 6-day, Total, 196 cell lines): 23% | % gIC100 < 2 μM (of cell lines) ([1]; 6-day, Total, 196 cell lines): 4% | IC50 [1, 27]: 2.12 µM | % Cytotoxic (cell lines with negative Ymin−T0) ([2]; 6-day, Colon, 34 cell lines): 3% | % gIC100 < 2 μM (of cell lines) ([2]; 6-day, Colon, 34 cell lines): 0% | Median gIC100 ([2]; 6-day, Colon, 34 cell lines): 29.33 µM | IC50 [2, 27]: 5.51 µM | % Cytotoxic (cell lines with negative Ymin−T0) ([3]; 6-day, Bladder, 18 cell lines): 0% | % gIC100 < 2 μM (of cell lines) ([3]; 6-day, Bladder, 18 cell lines): 0% | Median % Ymin − T0 ([3]; Bladder, MTAP High): 658% | Median gIC100 ([3]; Bladder, MTAP High): 29.3 µM | Median % Ymin − T0 ([3]; Bladder, MTAP Low): 257% | Median gIC100 ([3]; Bladder, MTAP Low): 29.3 µM | IC50 ([3]; MTAP High): 7.6 µM | IC50 ([3]; MTAP Low): 1.6 µM | % Cytotoxic (cell lines with negative Ymin−T0) ([4]; 6-day, Melanoma, 7 cell lines): 0% | % gIC100 < 2 μM (of cell lines) ([4]; 6-day, Melanoma, 7 cell lines): 0% | Median gIC100 ([4]; 6-day, Melanoma, 7 cell lines): 29.33 µM | IC50 ([4]; MTAP High): 1.9 µM | IC50 ([4]; MTAP Low): 0.3 µM | Median % Ymin − T0 ([4]; Melanoma, MTAP High): 214% | Median gIC100 ([4]; Melanoma, MTAP High): 29.4 µM | Median % Ymin − T0 ([4]; Melanoma, MTAP Low): 53% | Body weight Difference (vs. vehicle) ([5]; second study, 37.5 mg/kg QD oral, Day 25): −5% | Body weight Difference (vs. vehicle) ([5]; second study, 75 mg/kg BID oral, Day 25): −4% | Body weight Difference (vs. vehicle) ([5]; second study, 75 mg/kg QD oral, Day 25): −5% | Body weight Difference (vs. vehicle) ([5]; second study, 150 mg/kg QD oral, Day 25): −7% | Body weight Difference (vs. vehicle) ([5]; 150 mg/kg QD oral, Day 28): −4% | Body weight Difference (vs. vehicle) ([5]; 300 mg/kg QD oral, Day 28): −3% | Body weight Difference (vs. vehicle) ([5]; 450 mg/kg QD oral, Day 28): −8% | Body weight Difference (vs. vehicle) ([5]; 600 mg/kg QD oral, Day 28): −7% | body weight loss ([5]; Toledo, any dose group): No significant body weight loss | IC50 [6]: 0.003 to 0.005 µM | gIC100 [7]: 29.33 ± 0.00 µM | % Cytotoxic (cell lines with negative Ymin−T0) [8]: 0% | % gIC100 < 2 μM (of cell lines) [8]: 0% | Body weight Difference (vs. vehicle) ([9]; 150 mg/kg QD oral, Day 59): −3% | Body weight Difference (vs. vehicle) ([9]; 300 mg/kg QD oral, Day 59): −4% | Body weight Difference (vs. vehicle) ([9]; 450 mg/kg QD oral, Day 59): −7% | Body weight Difference (vs. vehicle) ([9]; 600 mg/kg QD oral, arm terminated at day 31): −17% | body weight loss ([9]; ACHN, 600 mg/kg daily, dosing group terminated on day 31): Significant body weight loss | IC50 [10]: 0.09 ± 0.03 µM | IC50 [11]: 0.02 ± 0.01 µM | IC50 [12]: 0.1 ± 0.05 µM | IC50 [13]: 0.05 ± 0.03 µM | inhibition of activity [14]: failed to inhibit | IC50 [15]: 0.003 to 0.005 µM | % Cytotoxic (cell lines with negative Ymin−T0) ([16]; 6-day, AML, 10 cell lines): 50% | % gIC100 < 2 μM (of cell lines) ([16]; 6-day, AML, 10 cell lines): 0% | Median gIC100 ([16]; 6-day, AML, 10 cell lines): 16.72 µM | number of cell lines in which cytotoxicity was induced ([16]; 6-day, of 10 AML cell lines): 5 | IC50 [16, 27]: 0.54 µM | inhibition of activity [17]: failed to inhibit | % Cytotoxic (cell lines with negative Ymin−T0) [18]: 0% | % gIC100 < 2 μM (of cell lines) [18]: 0% | Median gIC100 [18]: 29.35 µM | % Cytotoxic (cell lines with negative Ymin−T0) ([19]; 6-day, Breast, 29 cell lines): 10% | % gIC100 < 2 μM (of cell lines) ([19]; 6-day, Breast, 29 cell lines): 0% | Median gIC100 ([19]; 6-day, Breast, 29 cell lines): 29.36 µM | Median % Ymin − T0 ([19]; Breast, MTAP High): 174% | Median gIC100 ([19]; Breast, MTAP High): 29.4 µM | Median % Ymin − T0 ([19]; Breast, MTAP Low): 188% | IC50 ([19]; 144 h, read-out: median gIC50, 6-day, TNBC cell lines): 3.6 µM | IC50 ([19]; 144 h, read-out: median gIC50, 6-day, non-TNBC cell lines): 6.8 µM | IC50 ([19]; read-out: Median gIC50, Breast, MTAP High): 4.9 µM | IC50 ([19]; read-out: Median gIC50, Breast, MTAP Low): 10.2 µM | % Cytotoxic (cell lines with negative Ymin−T0) ([20]; 6-day, NSC-LC, 25 cell lines): 16% | % gIC100 < 2 μM (of cell lines) ([20]; 6-day, NSC-LC, 25 cell lines): 0% | Median gIC100 ([20]; 6-day, NSC-LC, 25 cell lines): 29.33 µM | IC50 ([20]; MTAP High): 5 µM | IC50 ([20]; MTAP Low): 3 µM | Median % Ymin − T0 ([20]; MTAP High): 141% | Median % Ymin − T0 ([20]; MTAP Low): 237% | Compound A concentration at which sub-G1 effect was evident [21]: 10 µM | Compound A concentrations giving accumulation of cells in sub-G1 ([22]; beginning after 3 days of treatment): ≥ 1000 nM | Compound A concentrations giving increase in the sub-G1 population ([22]; by day 7): ≥ 100 nM | Compound A concentration at which sub-G1 effect was evident [23]: 10 µM | concentration at which caspase cleavage occurred [24]: 30 µM | % Cytotoxic (cell lines with negative Ymin−T0) ([25]; 6-day, Lymphoma, 59 cell lines): 54% | % gIC100 < 2 μM (of cell lines) ([25]; 6-day, Lymphoma, 59 cell lines): 14% | IC50 ([25]; MTAP High): 0.6 µM | IC50 ([25]; MTAP Low): 0.1 µM | Median % Ymin − T0 ([25]; Lymphoma, MTAP High): 17% | Median gIC100 ([25]; Lymphoma, MTAP High): 24.4 µM | Median % Ymin − T0 ([25]; Lymphoma, MTAP Low): −89% | Median gIC100 ([25]; Lymphoma, MTAP Low): 5.3 µM | time after which increases in SDMA were apparent ([26]; 0.4 μM Compound A): 48 h | time at which increases in MMA were apparent ([26]; 0.4 μM Compound A): ≤ 24 h | time at which increases in MMA were near maximal ([26]; 0.4 μM Compound A): ≤ 48 h | time required for maximal decrease in the 45 kDa ADMA band ([26]; 0.4 μM Compound A): 72 to 96 h | time for ADMA to return to baseline after washout [26, 28]: ≤ 24 h | time for MMA to return to baseline after washout [26, 28]: ≤ 24 h | time for SDMA to return to baseline after washout [26, 28]: ≤ 96 h
